From US5985833A, “Thrombin inhibitor” (Wisconsin Alumni Research Foundation, priority 1996, dated 1999)
“Also recorded” adds a separate entry of the source. Where a SMILES comes first, the peptide text is derived from it. Where no end group is shown, it is not given here. [ ]: non-standard residue; d: D form. sY = N[C@@H](Cc1ccc(OS(=O)(=O)O)cc1)C(=O)O

Experiments:
thrombin [1] = biological target: T1, thrombin (Homo sapiens, UniProt P00734); assay: Peptide inhibition of 125I-PPACK-thrombin binding to peak 1 fibrin clot; details: for IC50 / inhibition of thrombin binding to peak 1 fibrin (in words): sulfated peptides; for IC50 for inhibition of thrombin binding to peak 1 fibrin (in words): non-sulfated γ' peptides containing 416 T→V and 420 S→A substitutions, FIG. 8
T1 construct: PPACK-thrombin was prepared by adding a five-fold molar excess of PPACK (Calbiochem, San Diego, Calif.) to α-thrombin; purchased Enzyme Research Laboratories, Inc., South Bend, Ind
Method: To determine the capacity of the peptides to inhibit thrombin binding, a 200 μl clot containing fibrin (0.5 nmoles) and ^125 I-PPACK-thrombin (0.1 nmoles) in 0.05M HEPES, 0.10M NaCl buffer, pH 7.4, and 0.01% (w/v) polyethylene glycol 8000 was formed in the presence of varying concentrations of peptide. The amount of thrombin bound to the clot was determined by counting the ^125 I radioactivity in a gamma counter. […] For most studies, peak 1 fibrin was used to assess the inhibitory capacity of the peptides. Similar qualitative thrombin-binding results were obtained using peak 2 fibrin (FIG. 6), but higher levels of peptide were needed to inhibit binding since this molecule contains the high affinity thrombin-binding site.

thrombin [2] = biological target: T1, thrombin; assay: Peptide inhibition of 125I-PPACK-thrombin binding to peak 2 fibrin clot; details: FIG. 6
thrombin [3] = details: cited from earlier work

Row | IC50 for inhibition of thrombin binding to peak 1 fibrin (in words) (thrombin [1]) | Molecule | IC50 / inhibition of thrombin binding to peak 1 fibrin (in words) (thrombin [1]; FIG. 7) | also measured
1 |  | CC(C)[C@H](NC(=O)[C@H](CCC(=O)O)NC(=O)[C@H](C)NC(=O)[C@@H]1CCCN1C(=O)[C@H](Cc1c[nH]cn1)NC(=O)[C@H](CCC(=O)O)NC(=O)[C@@H]1CCCN1)C(=O)N[C@@H](CCC(=O)O)C(=O)N[C@@H](Cc1ccc(OS(=O)(=O)O)cc1)C(=O)O [γ' 410-418(416V), P E H P A E V E Y] (H-PEHPAEVE[sY]-OH) | neither the amino-terminal γ' 410-418(416V) nor the carboxy-terminalγ' 419-427(420A) segment of this peptide had any significant inhibition of thrombin binding | 
2 |  | CC(C)C[C@H](NC(=O)[C@H](CC(=O)O)NC(=O)[C@H](CC(=O)O)NC(=O)[C@H](CCC(=O)O)NC(=O)[C@@H]1CCCN1C(=O)[C@H](Cc1ccc(OS(=O)(=O)O)cc1)NC(=O)[C@H](CC(C)C)NC(=O)[C@H](C)NC(=O)[C@@H](N)CCC(=O)O)C(=O)O [γ' 419-427(420A), E A L Y P E D D L] (H-EAL[sY]PEDDL-OH) | nor the carboxy-terminalγ' 419-427(420A) segment of this peptide had any significant inhibition of thrombin binding | 
3 |  | AVRPEHPAETEYESLYPEDDL (AVRPEHPAETEYESLYPEDDL) [sulfated γ' A408-427] | similar | IC50 (thrombin [2]; peak 2 fibrin, tyrosine-sulfated peptides): 14 µM; inhibitory effect on thrombin binding to peak 2 fibrin (in words) (thrombin [2]; sulfated versus non-sulfated peptide): greater inhibitory effect
4 |  | E H P A E T E F E S L Y P E D D L (EHPAETEFESLYPEDDL) [γ' 411-427/418F, tyrosine at 418 substituted with phenylalanine] | increase in IC50 compared with the doubly tyrosine-sulfated peptide; also recorded: lower IC50 than non-sulfated γ' A408-427 | 
5 |  | E H P A E T E Y E S L Y P E D D L (EHPAETEYESLYPEDDL) [sulfated γ' 411-427, doubly tyrosine-sulfated native γ' peptide] | Even greater inhibitory effects | IC50 / inhibition of thrombin binding to peak 1 fibrin (in words) (thrombin [1]; FIG. 7, listed as γ' 411-472): similar
6 | no significant increases in IC50 | EHPAEVEYEALYPEDDL [γ' 411-427 (416V/420A), E H P A E V E Y E A L Y P E D D L] |  | 
7 | no significant increases in IC50 | PEHPAEVEYEALYPEDDL [γ' 410-427 (416V/420A)] |  | 
8 | no significant increases in IC50 | VRPEHPAEVEYEALYPEDDL [γ' 408-427 (416V/420A), VRPEHPAEVEYEALYPEDDL] |  | 
9 |  | fibrinogen |  | Km (thrombin [3]; fibrinogen peptides or fibrinogen itself, read-out: Km estimated from peptide A release): 6 to 11 µM; Kd (thrombin [3]; substrate site, read-out: Kd derived from similar kinetic studies): 1.3 to 2.6 µM

Row | Molecule | IC50 for inhibition of thrombin binding to peak 1 fibrin (in words) (thrombin [1]) | IC50 / inhibition of thrombin binding to peak 1 fibrin (in words) (thrombin [1]; FIG. 7) | also measured
10 | AEVEYEALYPEDDL [γ' 414-427 (416V/420A), A E V E Y E A L Y P E D D L] | no significant increases in IC50; also recorded: lowest IC50 |  | 
